Source: patent US10633389B2, “CARM1 inhibitors and uses thereof” (Epizyme, Inc., priority 2013, dated 2020)

What was measured:
[1] = test system: asymmetric di-methyl PABP1 in RKO cells; test: RKO methylation assay, In Cell Western (ICW) for asymmetric di-methyl PABP1; format: cell-based; details: Homo sapiens, RKO, Cellular potencies, ICW PABP1me2a
Procedure, shortened: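 In-cell Western on fixed RKO cells after 48 h compound exposure: anti-asymmetric di-methyl PABP1 signal at 800 nm over DRAQ5 DNA signal at 700 nm. Percent inhibition set between DMSO wells and wells with 20 μM reference compound; IC50 curves fitted in triplicate.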

human CARM1 (PRMT4) = human CARM1 (PRMT4) (Homo sapiens (Human), UniProt Q86X55); test: CARM1 enzyme assay on peptide substrate (3H-SAM Flashplate); details: Biochemical potencies, read-out: Biochem IC50
Source text: S-adenosylmethionine (SAM), S-adenosylhomocysteine (SAH), bicine, Tween20, dimethylsulfoxide (DMSO), bovine skin gelatin (BSG), sodium butyrate and Tris(2-carboxyethyl)phosphine hydrochloride solution (TCEP) were purchased from Sigma-Aldrich at the highest level of purity possible. ^3H-SAM was purchase from American Radiolabeled Chemicals with a specific activity of 80 Ci/mmol. 384-well streptavidin Flashplates were purchased from PerkinElmer.
Peptide representative of human histone H3 residues 16-30 was synthesized with an N-terminal linker-affinity tag motif and a C-terminal amide cap by 21st Century Biochemicals. […] The sequence was Biot-Ahx-[…]-amide and contained a monomethylated arginine at position 26 (SEQ ID NO.:1).
The gene sequence encoding isoform 1 containing a deletion of amino acids 539-561 was amplified subsequently and subcloned into pFastBacMam (Viva Biotech).
Recombinant baculovirus were generated according to Bac-to-Bac kit instructions (Life Technologies). Protein over-expression was accomplished by infecting exponentially growing HEK 293F cell culture at 1.3×10^6 cell/ml with virus (MOI=10) in the presence of 8 mM sodium butyrate. Infections were carried out at 37° C. for 48 hours, harvested by centrifugation, and stored at −80° C. for purification.
Expressed full-length human Flag- and His-tagged CARM1 protein was purified from cell paste by anti-flag M2 affinity chromatography with resin equilibrated with buffer containing 20 mM Tris, 150 mM NaC, 5% glycerol, pH 7.8. Column was washed with 500 mM NaCl in buffer A and Flag-CARM1-His was eluted with 200 ug/ml FLAG peptide in buffer A. Pooled fractions were dialyzed in 20 mM Tris, 150 mM NaCl, 5% glycerol and 1 mM DTT, pH 7.8.
The assays were all performed in a buffer consisting of 20 mM Bicine (pH=7.6), 1 mM TCEP, 0.005% BSG, and 0.002% Tween 20, prepared on the day of use. Compounds in 100% DMSO (1 ul) were spotted into a polypropylene 384-well V-bottom plates (Greiner) using a Platemate Plus outfitted with a 384-channel head (Thermo Scientific). DMSO (1 ul) was added to Columns 11, 12, 23, 24, rows A-H for the maximum signal control and 1 ul of SAH, a known product and inhibitor of CARM1, was added to columns 11, 12, 23, 24, rows I-P for the minimum signal control. A cocktail (40 ul) containing the CARM1 enzyme was added by Multidrop Combi (Thermo-Fisher). The compounds were allowed to incubate with CARM1 for 30 min at room temperature, then a cocktail (10 ul) containing ^3H-SAM and peptide was added to initiate the reaction (final volume=51 ul). The final concentrations of the components were as follows: CARM1 was 0.25 nM, ^3H-SAM was 30 nM, peptide was 250 nM, SAH in the minimum signal control wells was 1 mM, and the DMSO concentration was 2%. The assays were stopped by the addition of non-radiolabeled SAM (10 ul) to a final concentration of 300 uM, which dilutes the ^3H-SAM to a level where its incorporation into the peptide substrate is no longer detectable. 50 ul of the reaction in the 384-well polypropylene plate was then transferred to a 384-well Flashplate and the biotinylated peptides were allowed to bind to the streptavidin surface for at least 1 hour before being washed once with 0.1% Tween20 in a Biotek ELx405 plate washer. The plates were then read in a PerkinElmer TopCount plate reader to measure the quantity of ^3H-labeled peptide bound to the Flashplate surface, measured as disintegrations per minute (dpm) or alternatively, referred to as counts per minute (cpm).
The Hill Coefficient normally allowed to float but may also be fixed at 1 in a 3-parameter fit.

human CARM1 (PRMT4), sequence (Q86X55 other isoform, or with tags, fused parts or gaps isoform Q86X55-1): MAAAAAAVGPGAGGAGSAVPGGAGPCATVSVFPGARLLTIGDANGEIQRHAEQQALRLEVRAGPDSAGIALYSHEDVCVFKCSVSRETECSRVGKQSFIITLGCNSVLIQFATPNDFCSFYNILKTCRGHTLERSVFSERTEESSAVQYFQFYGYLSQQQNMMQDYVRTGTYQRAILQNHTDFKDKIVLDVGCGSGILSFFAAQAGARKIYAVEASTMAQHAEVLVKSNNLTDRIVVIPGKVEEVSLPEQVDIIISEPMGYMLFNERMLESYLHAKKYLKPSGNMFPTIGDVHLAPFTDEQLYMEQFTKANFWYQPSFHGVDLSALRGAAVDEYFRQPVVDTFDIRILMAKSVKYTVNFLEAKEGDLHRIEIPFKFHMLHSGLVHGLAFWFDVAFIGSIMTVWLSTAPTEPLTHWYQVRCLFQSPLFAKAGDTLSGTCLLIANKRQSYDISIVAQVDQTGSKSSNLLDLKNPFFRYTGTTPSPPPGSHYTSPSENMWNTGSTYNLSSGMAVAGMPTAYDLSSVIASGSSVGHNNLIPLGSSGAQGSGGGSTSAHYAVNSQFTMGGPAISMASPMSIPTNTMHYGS

| Compound | IC50 [1] | IC50 (human CARM1 (PRMT4)) |
| --- | --- | --- |
| CNCC(O)COc1cccc(-c2nc(C(=O)N(C)CC3CCOCC3)cc(-c3c(C)noc3C)n2)c1 (stereo not drawn) [Example 46-1a] | 10 to 20 µM | 0.1 to 1 µM |
| CNCC(O)COc1ccc(C#N)c(-c2nc(NC3CCOCC3)c(C)c(-c3c(C)noc3C)n2)c1 (stereo not drawn) [Example 166-3] | ≥ 20 µM | 0.1 to 1 µM |
| CNCC(O)COc1cccc(-c2nc(NC3CCOCC3)c(C)c(N3CCNC(C)C3)n2)c1 (stereo not drawn) [Example 645-1a] | ≥ 20 µM | 1 to 3 µM |
| CNCC(O)COc1cccc(-c2nc(C(=O)NC3CCOCC3)cc(-c3c(C)noc3C)n2)c1 (stereo not drawn) [Example 52-1a] | 10 to 20 µM | 0.1 to 1 µM |
| CNCC(O)COc1cccc(-c2nc(NC3CCOCC3)cc(-c3c(C)nn(C)c3C)n2)c1 (stereo not drawn) [Example 675-1a] | ≥ 20 µM | 0.1 to 1 µM |
| CNCC(O)COc1cccc(-c2nc(NC3CCOCC3)c(C)c(-c3c(C)noc3C)n2)c1Cl (stereo not drawn) [Example 79-3] | ≥ 20 µM | 3 to 10 µM |
| CNCC(O)COc1cccc(-c2nc(-c3cccc(C#N)c3)cc(N(CCOC)CCOC)n2)c1 (stereo not drawn) [Example 629-1a] | ≥ 20 µM | 0.1 to 1 µM |
| CNCC(O)COc1cccc(-c2nc(N[C@@H]3CC[C@@H](O)C3)cc(N(C)C3CCOCC3)n2)c1 (stereo partly drawn) [Example 600-1a] | 10 to 20 µM | 0.1 to 1 µM |
| CNCC(O)COc1cccc(-c2nc(N[C@H]3C[C@@H](O)C3)cc(N(C)C3CCOCC3)n2)c1 (stereo partly drawn) [Example 599-1a] | 10 to 20 µM | 0.1 to 1 µM |
| CNCC(O)COc1cccc(-c2nc(NC3COC3)cc(-c3c(C)noc3C)n2)c1 (stereo not drawn) [Example 22-1a] | 10 to 20 µM | 0.1 to 1 µM |
| CNCC(O)COc1cccc(-c2nc(OC)c(C)c(-c3c(C)noc3C)n2)c1 (stereo not drawn) [Example 83-1a] | 10 to 20 µM | 0.1 to 1 µM |
| CNCC(O)COc1cccc(-c2nc(N[C@@H]3CCOC3)c(F)c(N3CCOCC3)n2)c1 (stereo partly drawn) [Example 433-1a] | 5 to 10 µM | 0.1 to 1 µM |
| CNCC(O)COc1cccc(-c2nc(N[C@@H]3CCOC3)c(C)c(-c3ccnc(OCCOC)c3)n2)c1 (stereo partly drawn) [Example 406-1a] | 5 to 10 µM | 0.1 to 1 µM |
| CNCC(O)COc1cccc(-c2nc(-c3ncc[nH]3)cc(N(C)C3CCOCC3)n2)c1 (stereo not drawn) [Example 550-1a] | 10 to 20 µM | 0.1 to 1 µM |
| CNCC(O)COc1cccc(-c2nc(N3CCN(C(C)=O)C4(CC4)C3)cc(N(C)C3CCOCC3)n2)c1 (stereo not drawn) [Example 523-1a] | 5 to 10 µM | 0.1 to 1 µM |
| CNCC(O)COc1cccc(-c2nc(N3CCC(O)(CCO)CC3)cc(N(C)C3CCOCC3)n2)c1 (stereo not drawn) [Example 591-1a] | 10 to 20 µM | 0.1 to 1 µM |
| CNCC(O)COc1cccc(-c2nc(NCCOC)cc(-c3ccc4c(c3)OCCO4)n2)c1 (stereo not drawn) [Example 628-1a] | ≥ 20 µM | 0.1 to 1 µM |
| CNCC(O)COc1cccc(-c2nc(-c3c(C)noc3C)cc(N(C)C(C)=O)n2)c1 (stereo not drawn) [Example 64-1a] | 10 to 20 µM | 0.1 to 1 µM |
| CNCC(O)COc1cccc(-c2nc(N[C@@H]3CC[C@H](C(=O)NC)C3)c(C)c(N3CCOCC3)n2)c1 (stereo partly drawn) [Example 680-1a] | ≥ 20 µM | 0.1 to 1 µM |
| CNCC(O)COc1cccc(-c2nc(N3CC4(CCOCC4)C3)cc(N(C)C3CCOCC3)n2)c1 (stereo not drawn) [Example 553-1a] | 10 to 20 µM | 0.1 to 1 µM |
| CNCC(O)COc1cccc(-c2nc(-c3c(C)noc3C)c(C)c(N3CCO[C@H](CN(C)C(=O)N(C)C)C3)n2)c1 (stereo partly drawn) [Example 128-1a] | 5 to 10 µM | 0.1 to 1 µM |
| CNCC(O)COc1cccc(-c2nc(N3CCN(CC(F)F)[C@@H](C)C3)cc(N(C)C3CCOCC3)n2)c1 (stereo partly drawn) [Example 595-1a] | 10 to 20 µM | 0.1 to 1 µM |
| CNCC(O)COc1cccc(-c2nc(NC3CCOCC3)c(C)c(N3CCN(C4CC4)CC3)n2)c1 (stereo not drawn) [Example 663-1a] | ≥ 20 µM | 0.1 to 1 µM |

| Compound | IC50 [1] | IC50 (human CARM1 (PRMT4)) |
| --- | --- | --- |
| CNCC(O)COc1cccc(-c2nc(NC3CCOCC3)cc(-c3cncnc3)n2)c1 (stereo not drawn) [Example 655-1a] | ≥ 20 µM | 0.1 to 1 µM |
| CNCC(O)COc1cccc(-c2nc(NC3CCOC3)c(C)c(N3CCC(O)(CCO)CC3)n2)c1 (stereo not drawn) [Example 399-1a] | 10 to 20 µM | 0.1 to 1 µM |
| CNCC(O)COc1cccc(-c2nc(NC3CCN(C(=O)OC)CC3)c(C)c(-c3c(C)noc3C)n2)c1Cl (stereo not drawn) [Example 107-3] | ≥ 20 µM | 3 to 10 µM |
| CNCC(O)COc1cccc(-c2nc(NC3CCOCC3)c(CO)c(-c3c(C)noc3C)n2)c1 (stereo not drawn) [Example 213-1a] | 10 to 20 µM | 0.1 to 1 µM |
| CNCC(O)COc1cccc(-c2nc(NCC(F)(F)F)cc(-c3cncnc3)n2)c1 (stereo not drawn) [Example 626-1a] | ≥ 20 µM | 1 to 3 µM |
| CCN1CCN(c2nc(-c3cccc(OCC(O)CNC)c3)nc(NC3CCOCC3)c2C)CC1 (stereo not drawn) [Example 641-1a] | ≥ 20 µM | 0.1 to 1 µM |
| CNCC(O)COc1cccc(-c2nc(N[C@@H]3CCOC3)c(C)c(-c3ccnc(N4CCC4)c3)n2)c1 (stereo partly drawn) [Example 407-1a] | 10 to 20 µM | 0.1 to 1 µM |
| CNCC(O)COc1cccc(-c2nc(N[C@@H]3CCOC3)c(C)c(N3CCC[C@@H]3C(=O)NC)n2)c1 (stereo partly drawn) [Example 450-1a] | 10 to 20 µM | 0.1 to 1 µM |
| CNCC(O)COc1cccc(-c2nc(N3CCCC4(CCOCC4)C3)cc(N(C)C3CCOCC3)n2)c1 (stereo not drawn) [Example 494-1a] | < 5 µM | 0.1 to 1 µM |
| CNCC(O)COc1cccc(-c2nc(NC3CCNCC3)cc(-c3ccncc3)n2)c1 (stereo not drawn) [Example 666-1a] | ≥ 20 µM | 0.1 to 1 µM |
| CNCC(O)COc1cccc(-c2nc(N(C)c3cnc(OC)nc3)cc(N(C)C3CCOCC3)n2)c1 (stereo not drawn) [Example 532-1a] | 5 to 10 µM | 0.1 to 1 µM |
| CNCC(O)COc1cccc(-c2nc(-c3c(C)n[nH]c3C)cc(N(C)C3CCOCC3)n2)c1 (stereo not drawn) [Example 534-1a] | 5 to 10 µM | 0.1 to 1 µM |
| CNCC(O)COc1cccc(-c2nc(N[C@@H]3CCOC3)c(C)c(N3CCN(C(C)=O)C4(CC4)C3)n2)c1 (stereo partly drawn) [Example 423-1a] | 10 to 20 µM | 0.1 to 1 µM |
| CNC[C@@H](O)COc1ccc(Cl)c(-c2nc(-c3c(C)noc3C)c(C)c(C3(C)CC3)n2)c1 [Example 262-3] | ≥ 20 µM | 0.1 to 1 µM |
| CNCC(O)COc1cccc(-c2nc(C(=O)N(C)CC3CCOCC3)cc(N(C)C3CCOCC3)n2)c1 (stereo not drawn) [Example 592-1a] | 10 to 20 µM | 0.1 to 1 µM |
| CNCC(O)COc1cccc(-c2nc(N[C@@H]3CCOC3)c(C)c(N3CC[C@H](N(C)C(C)=O)C3)n2)c1 (stereo partly drawn) [Example 430-1a] | 10 to 20 µM | 0.1 to 1 µM |
| CNC[C@@H](O)COc1cccc(-c2nc(N[C@@H]3CCOC3)c(C)c(-c3cn(S(C)(=O)=O)c4ncncc34)n2)c1 [Example 453-1a] | 5 to 10 µM | 0.1 to 1 µM |
| CNCC(O)COc1cccc(-c2nc(C3CCCC3)cc(C(CCOC)CCOC)n2)c1 (stereo not drawn) [Example 650-1a] | ≥ 20 µM | 0.1 to 1 µM |
| CNCC(O)COc1cccc(-c2nc(N[C@@H]3CCOC3)c(C)c(-c3cccnc3F)n2)c1 (stereo partly drawn) [Example 348-1a] | 10 to 20 µM | 0.1 to 1 µM |
| CNCC(O)COc1cccc(-c2nc(NC3CCOCC3)c(C(F)F)c(-c3c(C)noc3C)n2)c1 (stereo not drawn) [Example 214-1a] | 5 to 10 µM | 0.1 to 1 µM |
| CNCC(O)COc1cccc(-c2nc(NC3CCOCC3)cc(N(C3CCOCC3)C3CC3)n2)c1 (stereo not drawn) [Example 605-1a] | 10 to 20 µM | 1 to 3 µM |
| CNCC(O)COc1cccc(-c2nc(NCCOC)cc(-c3ccc(C(F)(F)F)nc3)n2)c1 (stereo not drawn) [Example 636-1a] | ≥ 20 µM | 0.1 to 1 µM |
